Experimental data taken from patent publication US9732067B2, “Compounds and methods for activating the apoptotic arm of the unfolded protein response” (University of Kansas, priority 2012, dated 2017).
Values joined by “and” are separate entries in the source; they are usually repeats but may differ in a detail not shown here. Identical values can stand only once.

What was measured:
HN6 = experiment: Proliferation, HN6; format: cell-based; conditions: HN-6, 24 hours, average of three experiments
Description: (§1) To determine whether ML291 could reduce the proliferation of malignant cells, a panel of OSCC (UMSCC23, A253, HN6, HN12, HN30, H460/T800) and ovarian cancer (RMG-1, TOV112D, A2780 and SKOV3) cell lines, were treated with increasing doses (0.15-20 μM) of ML291 for 24 hours (FIGS. 3A and 3B).

[1] = Toxicity towards Fa2N-4 immortalized human hepatocytes; format: cell-based; conditions: read-out: Toxicity Towards Fa2N-4 Immortalized Human Hepatocytes LC50
TOV112D (ovarian) = experiment: Proliferation, TOV112D; format: cell-based; conditions: Homo sapiens, 24 hours
Description: as §1

[2] = tested on: CHOP transcripts (apoptotic) compared to spliced XBP1 (adaptive); experiment: qRT-PCR transcription profile in OSCC cell lines UMSCC23, A253 and HN12; format: cell-based; conditions: four hours treatment
Source text: While ML291 robustly and selectively activated the apoptotic (CHOP) arm of UPR in the engineered luciferase reporter CHO-K1 cells, while not activating reporter under the control of the adaptive arm (XBP1) promoters, direct confirmation of the selective activation of genes and pathways on the apoptotic UPR arm in a biologically relevant cell or cell line was needed. To determine whether or not ML291 could selectively activate the apoptotic (CHOP) arm of the UPR, relevant oral squamous cell carcinoma cell lines, UMSCC23, A253 and HN12, were treated with ML291 for four hours. The activation/induction of associated genes along the UPR sub-pathways were measured by quantitative real-time reverse-transcription PCR (qRT-PCR) analysis of cDNA pools generated from whole cell lysates. […] Furthermore, the simultaneous induction of the CHOP down stream target GADD34, but not the DNA excision and repair gene ERCC1 indicated ML291 was activating CHOP via the UPR and not DNA damage.

[3] = Tolerability of ML291 in mice; format: in vivo
PAMPA permeability = format: in vitro ADME
Description: The PAMPA (Parallel Artificial Membrane Permeability Assay) assay was used as an in vitro model of passive, transcellular permeability. An artificial membrane immobilized on a filter was placed between a donor and acceptor compartment. At the start of the test, drug was introduced in the donor compartment. Following the permeation period, the concentration of drug in the donor and acceptor compartments was measured using UV spectroscopy.

UMSCC23 = experiment: Proliferation, UMSCC23; format: cell-based; conditions: Homo sapiens, 24 hours, average of three experiments
Description: as §1

H460/T800 = experiment: Proliferation, H460/T800; format: cell-based; conditions: Homo sapiens, NCI-H460, 24 hours, average of three experiments
Description: as §1

A253-CHOP-luc xenografts = experiment: Bioluminescent imaging of A253-CHOP-luc xenografts; format: in vivo, SCID mice; conditions: 24 hours after 10 mg/kg (IP)
Plasma stability, mouse = format: in vitro ADME
Source text: Plasma stability is a measure of the stability of small molecules and peptides in plasma and is an important parameter, which strongly can influence the in vivo efficacy of a test compound. Drug candidates are exposed in plasma to enzymatic processes (proteinases, esterases), and they can undergo intramolecular rearrangement or bind irreversibly (covalently) to proteins. ML291 appeared to be moderately stable in human plasma (˜84% remaining), but less so in mouse plasma (˜52% remaining).

A2780 (ovarian) = experiment: Proliferation, A2780; format: cell-based; conditions: Homo sapiens, 24 hours
Description: as §1

[4] = Aqueous solubility in 1x PBS, pH 7.4; format: physicochemical; conditions: room temperature (23° C.)
Description: Solubility was measured in phosphate-buffered saline (PBS) at room temperature (23° C.). PBS by definition is 137 mM NaCl, 2.7 mM KCl, 10 mM sodium phosphate dibasic, 2 mM potassium phosphate monobasic and a pH of 7.4.

[5] = Plasma protein binding, mouse; format: in vitro ADME
Source text: Plasma protein binding is a measure of a drug's efficiency to bind to the proteins within blood plasma. The less bound a drug is, the more efficiently it can traverse cell membranes or diffuse. Highly plasma protein bound drugs are confined to the vascular space, thereby having a relatively low volume of distribution. In contrast, drugs that remain largely unbound in plasma are generally available for distribution to other organs and tissues. ML291 was highly plasma protein bound to human plasma proteins (>99%), though it is somewhat less tightly bound to mouse plasma proteins (˜84%).

SKOV3 = experiment: Proliferation, SKOV3; format: cell-based; conditions: Homo sapiens, SK-OV-3, 24 hours
Description: as §1

A253 = experiment: Proliferation, A253; format: cell-based; conditions: Homo sapiens, 24 hours, average of three experiments
Description: as §1

HN12 = experiment: Proliferation, HN12; format: cell-based; conditions: 24 hours, average of three experiments
Description: as §1

[6] = tested on: colorectal cell line DLD1(BAX−/−)(BAK−/−); experiment: ML291 exposure of DLD1(BAX−/−)(BAK−/−) versus wild-type; format: cell-based, human; conditions: versus wild-type controls
OSCC = experiment: Preliminary combination studies with cisplatin and taxol; format: cell-based
Description: To confirm the ability of ML291 to activate UPR-luciferase reporters stably transfected into UMSCC23 and A253 cells and reduce tumor burden, additional xenograft studies are performed with additional animals to permit real-time measurement of UPR activation during drug treatment (bioluminescent imaging). The data presented herein indicate that ML291 can activate the UPR in xenograft tissue at 10 mg/kg. […] Thus, mice are injected IP in the morning with 10-100 mg/kg ML291. Injection in the morning, i.e., when the lights come on in the vivarium and the mice stomachs are most likely to be full, is a technique known to enhance absorption of nitrofurans into the bloodstream (Heinrichs (2001) Behavioural Brain Res. 125:81-88). […] Upon completion of this experiment, control and ML291 treated mice (3 each) undergo complete pathological necropsy to identify gross or histological signs of organ toxicity. Once the degree to which ML291 induces the UPR and reduces xenograft burden is analyzed, additional studies are carried out with combination therapies using standard of care OSCC drugs. […] It is posited that ML291-enforced UPR in the tumor milieu potentiates conventional therapies and might enhance the effects of cisplatin, ifosfamide or taxol.

HN30 = experiment: Proliferation, HN30; format: cell-based; conditions: 24 hours, average of three experiments
Description: as §1

O=C(Nc1ccc(S(=O)(=O)N2CCC(Cl)CC2)cc1)c1ccc([N+](=O)[O-])o1 [ML291, N-(4-((4-chloropiperidin-1-yl)sulfonyl)phenyl)-5-nitrofuran-2-carboxamide]
IC50 (HN6): > 20 µM | CC50 [1]: 11.4 µM | IC50 (TOV112D (ovarian)): 6.59 µM | selectivity of CHOP transcripts compared to spliced XBP1 [2]: 5 fold | weight, physical appearance, disposition or activity versus controls ([3]; 10 mg/kg IP daily, preliminary): no differences in weight, physical appearance, disposition or activity | side effects ([3]; 10 mg/kg bi-weekly for four weeks): did not display any obvious side effects | PAMPA Permeability, Pe (PAMPA permeability; Donor pH 5.0, Acceptor pH 7.4): 291 ×10⁻⁶ cm/s | PAMPA Permeability, Pe (PAMPA permeability; Donor pH 6.2, Acceptor pH 7.4): 329 ×10⁻⁶ cm/s | PAMPA Permeability, Pe (PAMPA permeability; Donor pH 7.4, Acceptor pH 7.4): 245 ×10⁻⁶ cm/s | PAMPA permeability (PAMPA permeability; donor pH 5.0, 6.2 and 7.4): good permeability | IC50 (UMSCC23): 7.31 ± 1.68 µM | IC50 (H460/T800): 18.9 ± 1.83 µM | luminescence of xenografts (A253-CHOP-luc xenografts): increased luminescence | remaining in mouse plasma (Plasma stability, mouse): ~52% | Plasma Stability (% Remaining at 3 hours @ 37° C.) (Plasma stability, mouse; Mouse): 52.31% | IC50 (A2780 (ovarian)): 2.16 µM | Aqueous Solubility in 1x PBS, pH 7.4 [4]: 3.9 μg/mL and 9.4 μM | bound to mouse plasma proteins [5]: ~84% | fraction unbound at 1 µM ([5]; plasma, Mouse, 1 μM, read-out: Plasma Protein Binding (% Bound) (converted)): 0.155 | fraction unbound at 10 µM ([5]; plasma, Mouse, 10 μM, read-out: Plasma Protein Binding (% Bound) (converted)): 0.157 | IC50 (SKOV3): 1.59 µM | IC50 (A253): 17.2 ± 3.64 µM | IC50 (HN12): 7.17 ± 0.69 µM | ability of BAX/BAK-deleted cells to withstand exposure [6]: significantly more able to withstand ML291 exposure than wild-type controls | effect of combination with cisplatin and taxol (OSCC): reduced IC50 values | IC50 (HN30): 8.95 ± 1.06 µM
